{
  "source": "patent US10633635B2",
  "about": "“Methods for production of functional beta cells” (Janssen Biotech, Inc., priority 2016, dated 2020)",
  "key": {"MAFA [1]": {"tested_on": "MAFA", "test": "Small molecule screen: qRT-PCR of MAFA expression at Stage 7 in H1-hESC-derived ALI clusters", "type": "cell-based, human", "conditions": "Stage 7 no ALK5, low T3, ZM, H, NAC, FI, BLAR001; 5 μM AZT; 1 μM or 10 μM DEZA; S7D7 ALI clusters; FIG. 2A"}, "UCN3": {"tested_on": "UCN3", "test": "Small molecule screen: qRT-PCR of UCN3 expression at Stage 7 in H1-hESC-derived ALI clusters", "type": "cell-based, human", "conditions": "S7D7 ALI clusters; for UCN3 up-regulation during Stage 7: Stage 7 no ALK5, low T3, ZM, H, NAC, FI, BLAR001, 5 μM AZT, 1 μM or 10 μM DEZA, FIG. 2B; for expression of UCN3 as compared to S6D7, or untreated or DMSO treated cultures at Stage 7: 2 μM small molecule added at Stage 7, quantitative real-time PCR, FIGS. 1E-1H", "procedure": "(§1) The following example is directed to identification of small molecules that can enhance the maturation status of a pancreatic beta cell, via increasing the gene expression of mature beta cell markers including MAFA (v-maf avian musculoaponeurotic fibrosarcoma oncogene homolog A) or UCN3 (urocortin 3). […] Y-compound was added to only during the first 24 hours post-seeding.\n(§2) For FIGS. 1A to 1H the cultures were differentiated using the following protocol.\n(§3) In general, the embodiments herein differentiate human pluripotent cells substantially as described above in Stages 1-7. For Stage 7, various small molecules were added and their effect was evaluated by quantitative real-time PCR. These small molecules were evaluated and 2 μM of each was added at Stage7.\n(§4) Primer details are outlined in Table III."}, "MAFA or UCN3": {"tested_on": "MAFA or UCN3", "test": "Small molecule screen at Stage 7: induction of MAFA or UCN3 expression", "type": "cell-based, human", "conditions": "Stage 7 at 20 mM D-glucose plus BME Vitamin supplement; 79 small molecules of Table XI", "procedure": "as §1, §2\nas §3, with “PCR. […]” for “PCR.”\nas §4"}, "MAFA [2]": {"tested_on": "MAFA", "test": "Small molecule screen: qRT-PCR of MAFA expression at Stage 7 in H1-hESC-derived ALI clusters", "type": "cell-based, human", "conditions": "2 μM small molecule added at Stage 7; S7D7 ALI clusters; quantitative real-time PCR; FIGS. 1A-1D", "procedure": "as §1, §2, §3, §4"}, "INHBB": {"tested_on": "INHBB", "conditions": "S7D7 ALI clusters; 10 μM ALK5 inhibitor II in Stage 7; FIG. 3A", "quoted_text": "Cells of the human embryonic stem cell line H1 (“H1-hESC”) (with EZ8 media at passage 28 were seeded as single cells at 0.094×10^6 cells/cm^2 on […] ™ at a 1:30 dilution coated dishes in a media of Dulbecco's Modified Eagle's Medium Nutrient mixture F-12 (“DMEM-F12”), GlutaMAX™ in a 1:100 dilution (“1× concentration”), 0.25 mM ascorbic acid, 100 ng/ml fibroblast growth factor 2 (“FGF2”), 1 ng/ml of transforming growth factor beta (“TGFβ”), insulin-transferrin-selenium-ethanolamine (“ITS-X”) at a 1:100 dilution, 2% fatty-acid free bovine serum albumin (“FAF-BSA”), and 20 ng/ml of insulin-like growth factor-1 (“IGF-1”), supplemented with 10 μM of Rock Inhibitor Y-27632 (“Y-compound”). Forty-eight hours post-seeding, the cultures were washed in incomplete PBS (phosphate buffered saline without magnesium or calcium).\nDuring Stages 1 through 4 of the protocol, cultures were maintained on planar adherent cultures. • a. […]"}, "human islets": {"tested_on": "human islets", "test": "Glucose-stimulated insulin secretion (perifusion, C-PEPTIDE ELISA)", "type": "cell-based", "conditions": "16.7 mM D-glucose ± 100 ng/ml Exendin-4, FIG. 8D", "procedure": "For quantification of glucose-dependent insulin secretion, Stage 7 ALI clusters, Aggrewell™ clusters and matured human islets were characterized by a cell perifusion system (BioRep Technologies, Miami, Fla., Catalog No. PERI4-02). Briefly, to normalize insulin secretion to a baseline, ALI/Aggrewell™ clusters or human islets were transferred into warm (37° C.) Kreb's Buffer (Table IX). Cells were loaded into perifusion chambers (BioRep Technologies, Catalog No. PERI-CHAMBER), and were continuously perfused (flow rate of 100 μl/min) with […] sequential Kreb's buffers supplemented with either: (i) 3 mM D-glucose; (ii) 16.7 mM D-glucose±100 ng/ml Exendin-4 (“Ex4”); and (iii) 25 mM KCl with 3 mM D-glucose. Specific perifusion protocols are indicated in each figure. Perfusate samples were collected every minute, and C-PEPTIDE protein levels (units in ng/ml) detected by a C-PEPTIDE ELISA (Mercodia, Uppsala, Sweden, Catalog No. 10-1136-01)."}},
  "note": "Entries after “also recorded” stand apart in the source; their conditions may differ. Where a name gives a salt, the structure may show the parent alone.",
  "data": [
    {"compound": "Nc1nccc2c1ncn2[C@@H]1C=C(CO)[C@@H](O)[C@H]1O", "note": "[3-Deazaneplanocin A]", "values": [
      {"measurement": "MAFA up-regulation during Stage 7", "setting": "MAFA [1]", "value": "effective up-regulator of MAFA"},
      {"measurement": "UCN3 up-regulation during Stage 7", "setting": "UCN3", "value": "but not UCN3"}
    ]},
    {"compound": "Nc1ncn([C@@H]2O[C@H](CO)[C@@H](O)[C@H]2O)c(=O)n1", "note": "[5-Azacytidine]", "values": [
      {"measurement": "expression of the MAFA or UCN3", "setting": "MAFA or UCN3", "value": "induced expression"},
      {"measurement": "expression of UCN3 as compared to S6D7, or untreated or DMSO treated cultures at Stage 7", "setting": "UCN3", "value": "significantly upregulated; also recorded: increased"},
      {"measurement": "UCN3 up-regulation during Stage 7", "setting": "UCN3", "value": "up-regulator"}
    ]},
    {"compound": "COc1cc2c(cc1OCCCN1CCCC1)N=C(N)C21CCC1", "note": "[A366]", "values": [
      {"measurement": "expression of MAFA as compared to S6D7, or untreated or DMSO treated cultures at Stage 7", "setting": "MAFA [2]", "value": "significantly upregulated"}
    ]},
    {"compound": "Cc1cccc(-c2n[nH]cc2-c2ccc3ncccc3n2)n1", "note": "[ALK5 inhibitor II, 2-(3-(6-Methylpyridin-2-yl)-1H-pyrazol-4-yl)-1,5-naphthyridine]", "values": [
      {"measurement": "INHBB expression relative to human islets", "setting": "INHBB", "value": "enriched above the expression seen in human islets"}
    ]},
    {"compound": "CC1=NN(c2ccc(C(=O)O)cc2)C(=O)C1=Cc1ccc(-c2cc(C)c(C)cc2[N+](=O)[O-])o1", "note": "[C646]", "values": [
      {"measurement": "expression of the MAFA or UCN3", "setting": "MAFA or UCN3", "value": "induced expression"}
    ]},
    {"compound": "CC(=O)Nc1ccc(C(=O)Nc2ccccc2N)cc1", "note": "[CI994]", "values": [
      {"measurement": "expression of UCN3 as compared to S6D7, or untreated or DMSO treated cultures at Stage 7", "setting": "UCN3", "value": "significantly upregulated; also recorded: increased"}
    ]},
    {"compound": "O=C(O[C@@H]1Cc2c(O)cc(O)cc2O[C@@H]1c1cc(O)c(O)c(O)c1)c1cc(O)c(O)c(O)c1", "note": "[EGCG]", "values": [
      {"measurement": "expression of the MAFA or UCN3", "setting": "MAFA or UCN3", "value": "induced expression"}
    ]},
    {"compound": "O=c1c(O)c(-c2ccc(O)c(O)c2)oc2cc(O)ccc12", "note": "[Fisetin]", "values": [
      {"measurement": "expression of the MAFA or UCN3", "setting": "MAFA or UCN3", "value": "induced expression"}
    ]},
    {"compound": "COc1ccc(S(=O)(=O)ON=C2C=C(C)C(=O)C(C)=C2)cc1", "note": "[L002]", "values": [
      {"measurement": "expression of the MAFA or UCN3", "setting": "MAFA or UCN3", "value": "induced expression"}
    ]},
    {"compound": "O=c1cc(N2CCNCC2)oc2c(-c3ccccc3)cccc12", "note": "[LY303511]", "values": [
      {"measurement": "expression of MAFA as compared to S6D7, or untreated or DMSO treated cultures at Stage 7", "setting": "MAFA [2]", "value": "significantly upregulated"}
    ]},
    {"compound": "Nc1nc(OCc2cc(Br)cs2)c2[nH]cnc2n1", "note": "[Lomeguatrib]", "values": [
      {"measurement": "expression of the MAFA or UCN3", "setting": "MAFA or UCN3", "value": "induced expression"}
    ]},
    {"compound": "Cn1c(/C=C/C(=O)NO)ccc1/C=C/C(=O)c1cccc(F)c1", "note": "[MC1568]", "values": [
      {"measurement": "expression of MAFA as compared to S6D7, or untreated or DMSO treated cultures at Stage 7", "setting": "MAFA [2]", "value": "significantly upregulated"}
    ]},
    {"compound": "Cc1cc(/N=N/c2ccc(S(=O)(=O)Nc3ccccn3)cc2)c(N)cc1O", "note": "[MS436]", "values": [
      {"measurement": "expression of MAFA as compared to S6D7, or untreated or DMSO treated cultures at Stage 7", "setting": "MAFA [2]", "value": "significantly upregulated"}
    ]},
    {"compound": "O=C1c2c(O)ccc(O)c2C(=O)c2c(NCCNCCO)ccc(NCCNCCO)c21", "note": "[Mitoxantrone dihydrochloride]", "values": [
      {"measurement": "expression of the MAFA or UCN3", "setting": "MAFA or UCN3", "value": "induced expression"}
    ]},
    {"compound": "CC(=O)NCC(=O)N1[C@@H]2CC[C@H]1c1ccc(Nc3ncc(C(F)(F)F)c(NC4CCC4)n3)cc12", "note": "[PF03814735]", "values": [
      {"measurement": "expression of MAFA as compared to S6D7, or untreated or DMSO treated cultures at Stage 7", "setting": "MAFA [2]", "value": "significantly upregulated"}
    ]},
    {"compound": "COc1ccccc1S(=O)(=O)Nc1ccc2c(c1)CN(C)C(=O)N2", "note": "[PFI1]", "values": [
      {"measurement": "expression of MAFA as compared to S6D7, or untreated or DMSO treated cultures at Stage 7", "setting": "MAFA [2]", "value": "significantly upregulated"}
    ]},
    {"compound": "O=C(CCCCCCC(=O)Nc1cccnc1)NO", "note": "[Pyroxamide]", "values": [
      {"measurement": "expression of UCN3 as compared to S6D7, or untreated or DMSO treated cultures at Stage 7", "setting": "UCN3", "value": "significantly upregulated; also recorded: increased"}
    ]},
    {"compound": "CCn1c(-c2nonc2N)nc2cncc(CNC3CCNCC3)c21", "note": "[SB747651A dihydrochloride]", "values": [
      {"measurement": "expression of MAFA as compared to S6D7, or untreated or DMSO treated cultures at Stage 7", "setting": "MAFA [2]", "value": "significantly upregulated"}
    ]},
    {"compound": "CC(C)N(CCCNC(=O)Nc1ccc(C(C)(C)C)cc1)C[C@H]1O[C@@H](n2cc(Br)c3c(N)ncnc32)[C@H](O)[C@@H]1O", "note": "[SGC0946]", "values": [
      {"measurement": "expression of the MAFA or UCN3", "setting": "MAFA or UCN3", "value": "induced expression"}
    ]},
    {"compound": "Cc1cc(Nc2ccc(NC(=O)c3ccc(Nc4ccnc5ccccc45)cc3)cc2)nc(N)n1", "note": "[SGI 1027]", "values": [
      {"measurement": "expression of the MAFA or UCN3", "setting": "MAFA or UCN3", "value": "induced expression"}
    ]},
    {"compound": "O=C(CCl)Nc1ccc(S(=O)(=O)c2ccc(NC(=O)CCl)cc2)cc1", "note": "[TC-E5003]", "values": [
      {"measurement": "expression of MAFA as compared to S6D7, or untreated or DMSO treated cultures at Stage 7", "setting": "MAFA [2]", "value": "significantly upregulated"}
    ]},
    {"compound": "Cn1nnc2c(C(N)=O)ncn2c1=O", "note": "[Temozolomide]", "values": [
      {"measurement": "expression of the MAFA or UCN3", "setting": "MAFA or UCN3", "value": "induced expression"}
    ]},
    {"compound": "COc1cc2c(NC3CCN(C(C)C)CC3)nc(C3CCCCC3)nc2cc1OCCCN1CCCC1", "note": "[UNC0638]", "values": [
      {"measurement": "expression of MAFA as compared to S6D7, or untreated or DMSO treated cultures at Stage 7", "setting": "MAFA [2]", "value": "significantly upregulated"}
    ]},
    {"compound": "COc1cc2c(NC3CCN(C(C)C)CC3)nc(N3CCC(F)(F)CC3)nc2cc1OCCCN1CCCC1", "note": "[UNC0642]", "values": [
      {"measurement": "expression of MAFA as compared to S6D7, or untreated or DMSO treated cultures at Stage 7", "setting": "MAFA [2]", "value": "significantly upregulated"}
    ]},
    {"compound": "COc1cc2c(NC3CCN(C4CCCCC4)CC3)nc(N3CCCN(C(C)C)CC3)nc2cc1OCCCN1CCCCC1", "note": "[UNC0646]", "values": [
      {"measurement": "expression of MAFA as compared to S6D7, or untreated or DMSO treated cultures at Stage 7", "setting": "MAFA [2]", "value": "significantly upregulated"}
    ]},
    {"compound": "COc1cc2c(Nc3ccc(NC(=O)c4ccccc4)cc3)ncnc2cc1OCCCN1CCOCC1", "note": "[ZM447439]", "values": [
      {"measurement": "expression of MAFA as compared to S6D7, or untreated or DMSO treated cultures at Stage 7", "setting": "MAFA [2]", "value": "significantly upregulated"}
    ]},
    {"compound": "O=c1ncccn1[C@@H]1O[C@H](CO)[C@@H](O)[C@H]1O", "note": "[Zebularine]", "values": [
      {"measurement": "expression of the MAFA or UCN3", "setting": "MAFA or UCN3", "value": "induced expression"}
    ]},
    {"compound": "Exendin-4: insulin secretagogue, 100 ng/ml in perifusion buffer (Sigma-Aldrich E7144)", "values": [
      {"measurement": "amplitude of the GSIS response", "setting": "human islets", "value": "did not increase the amplitude of the GSIS response"}
    ]}
  ]
}
